Experimental data taken from patent US10058524B2, “Methods for improving joint function” (Tersus Life Sciences, LLC, priority 2015, dated 2018).

Columns and labels:
Type in all cases: in vivo
Human Subjects [1] = test: Stanford Exercise Behavior Scale - Stretching and Aerobics
Text: (§1) Goniometry was used to measure knee range of motion. To measure Knee Extension, subjects were instructed to extend the left or right knee to full extension without changing the position of their pelvis and lumbar spine. An inclinometer was placed along the subject's shin so as to document the range of motion in degrees. To measure Knee Flexion, subjects were asked to lie on their stomach with their shins off the end of the table, and were instructed to fully extend their knees. The subject was then asked to actively flex his/her knee to a full flexion position. The following scales and questionnaires: Stanford Exercise Behavior Scale—Stretching and Aerobics, Knee-related QOL subscale of KOOS Knee Survey, SF-12, and Knee Discomfort Improvement Scale were completed by the subjects at the initial screening.
Experimental endpoints included Change in Time of Onset and Offset of Discomfort, Changes in 6-Minute Timed Walk, Change in Knee Range of Motion as measured by goniometry including Left and Right Knee Extension and Left and Right Knee Flexion. Stanford Exercise Scale—Stretching and Aerobics was used to measure the effect of the C16:1n7-palmitoleate composition on physical activity levels.

Human Subjects [2] = test: Stepmill Protocol: time of onset and offset of knee discomfort
Procedure: The study duration was thirty-seven (37) days with a total of 4 visits per subject. The initial screening visit (Visit 1) occurred 7 days prior to the initiation of the study (Day −7). Subjects arrived in the clinic having fasted for 10 hours in preparation for Visit 1. Subjects underwent the informed consent process and were screened for the presence of all the inclusion criteria and the absence of all the exclusion criteria. The screening process also included taking a detailed medical history, recording prior and concomitant medications, performing a physical examination, and documenting vital signs, and anthropometric measures. To determine eligibility, subjects continuously used the Stepmill at a set rate for 10 minutes until they complained of knee discomfort (in at least one knee) that scored at least 5 on an 11 point numeric pain rating scale. The time of onset of joint pain was recorded. Subjects were also instructed to inform the clinician when their discomfort began to subside and when their discomfort completely resolved.
Baseline assessments included evaluating the pain or discomfort experienced by subjects during exercise testing. Subjects were instructed to exercise on a StepMill® model 7000PT (StairMaster® Health & Fitness Products, Inc., Kirkland, Wash.) at a set rate (Level 4) for 10 minutes. The following knee discomfort measures were recorded from the beginning of the Stepmill test: (1) time of onset of initial joint pain; (2) time of onset of maximum joint pain; (3) time at which initial improvement in knee joint pain was achieved; and (4) time of complete recovery from knee joint pain. Subjects that reported a discomfort level of 5 on an 11 point (0-10) Likert scale in at least one knee within the 10-minute period were selected. Once the requisite pain level was achieved, the subject was asked to continue stepping for an additional two minutes in order to record the maximum pain level reached before disembarking from the stepmill. Subjects who experienced a pain score of 5 (or greater) within one minute of starting the stress test were excluded.
(§2) Subjects who met all of the study inclusion criteria and none of the exclusion criteria were randomly assigned to either the C16:1n7-palmitoleate-treatment or placebo groups. The C16:1n7-palmitoleate composition included palmitoleic acid, gelatin, glycerin and purified water whereas the placebo included medium chain triglycerides. […] The subjects and the clinical staff were unaware of what group a particular subject was allocated to. Baseline assessments for joint pain and knee range of motion in a subject were obtained via the 6-Minute Timed Walk, Stepmill Protocol, and goniometry. At the end of the visit, subjects were provided with a 7-day supply of the C16:1n7-palmitoleate composition or placebo and daily dosing diaries. Subjects were instructed to ingest a single capsule of the C16:1n7-palmitoleate composition or the placebo per day.
(§3) Subjects returned to the clinic at Visit 3 (Day 7) for repeat assessments of joint pain, range of motion, activity levels and health-related quality of life scores. After the performance-based physical functioning measures were evaluated, the subjects were provided with a 23-day supply of the C16:1n7-palmitoleate composition or placebo. Subjects returned to the clinic at Visit 4 (Day 30), which marked the end of the study, for reevaluation of the performance-based physical functioning measures.
The time of onset of discomfort or pain level refers to the time at which the minimum or maximum discomfort or pain level is reached. The time of onset of minimum discomfort or pain level refers to the time at which minimum discomfort or pain level is reached. The time of onset of maximum discomfort or pain level refers to the time at which maximum discomfort or pain level is reached.
As used herein, the time of offset of discomfort is the time at which a level of relief is reached after performing the Stepmill Protocol described herein. […]

Human Subjects [3] = test: 6-Minute Timed Walk; conditions: between treated and placebo groups, any time point
Procedure: Other performance-based physical functioning measures including the 6-Minute Timed Walk and Knee Range of Motion (ROM) were also performed by the subjects. In the 6-Minute Timed Walk, subjects walked up and down a hallway for 6 minutes and were instructed to walk as rapidly as possible within their comfort zone, and as rapidly as possible without causing themselves any pain.
Subjects who met all of the study inclusion criteria and none of the exclusion criteria were randomly assigned to either the C16:1n7-palmitoleate-treatment or placebo groups. The C16:1n7-palmitoleate composition included palmitoleic acid, gelatin, glycerin and purified water whereas the placebo included medium chain triglycerides. […] The subjects and the clinical staff were unaware of what group a particular subject was allocated to. Baseline assessments for joint pain and knee range of motion in a subject were obtained via the 6-Minute Timed Walk, Stepmill Protocol, and goniometry. […]
Subjects returned to the clinic at Visit 3 (Day 7) for repeat assessments of joint pain, range of motion, activity levels and health-related quality of life scores. After the performance-based physical functioning measures were evaluated, the subjects were provided with a 23-day supply of the C16:1n7-palmitoleate composition or placebo. […]

Human Subjects [4] = test: Knee Discomfort Improvement Scale; conditions: group n=20
Text: as §1
Knee Discomfort Improvement Scale refers to the response to the question “Is your overall knee discomfort improving?”, rated using a 3-point scale where zero is “Not at All”, 1 is “Moderately” and 2 is “Definitely”.

Human Subjects [5] = test: Knee-related QOL subscale of KOOS Knee Survey
Text: as §1
Knee injury and Osteoarthritis Outcome Score (KOOS) is an instrument to assess the patients' opinion about their knee and knee-associated problems. For this study, only the Knee Related QOL subscale was used.

Human Subjects [6] = test: Knee range of motion by goniometry (extension and flexion)
Text: as §1, §2, §3
Goniometric measurements, which record the active and passive range of motion in joints like the knee, are often used in evaluating joint function.

Human Subjects [7] = test: SF-12 survey (physical and mental component scores)
Text: as §1
Quality of life (QOL) was assessed using Change in SF-12 and Knee-related QOL subscale of KOOS Knee Survey, and Knee Discomfort Improvement Scale. The SF-12 is a multipurpose short form survey with 12 questions, all selected from the SF-36 Health Survey. The questions were combined, scored, and weighted to create two scales that provide glimpses into the subject's mental and physical functioning and overall health-related-quality of life. Physical and Mental Health Component Summary Scores were computed using the scores of the twelve questions and a range from 0 to 100, where zero corresponds to the lowest level of health measured by the scales and 100 corresponds to the highest level of health.

[8] = between treated and placebo groups, any time point
[9] = within-group, baseline to any time point

CCCCCC/C=C\CCCCCCCC(=O)O [C16:1n7-palmitoleate, palmitoleic acid] was tested, and the “average minutes per week for aerobic exercise” value (Human Subjects [1]; [8]) was “no statistically significant differences”, the “average minutes per week for stretching exercise” value (Human Subjects [1]; [8]) was “no statistically significant differences” and the time spent stretching (Human Subjects [1]; within-group, after 30 days of supplementation, p=0.066) was “non-statistically significant yet clinically significant increase”. For the same compound, the “average minutes per week for aerobic exercise” value (Human Subjects [1]; [9]) was “no statistically significant changes”, the “average time to report maximum discomfort or pain level” value (Human Subjects [2]; after 30 days, placebo 5.43±2.53 minutes) was 6.89 ± 2.59 min and the “time of onset of minimum discomfort or pain level” value (Human Subjects [2]; between treated and placebo groups) was “no statistically significant difference”. The “time of offset of maximum discomfort” value (Human Subjects [2]; [8]) was “no statistically significant difference”, the “time of offset of minimum discomfort” value (Human Subjects [2]; [8]) was “no statistically significant difference” and the “changes in the time of onset of maximum discomfort from Day 0 to Day 30” value (Human Subjects [2]; between treated and placebo groups, p=0.007) was “statistically significant difference”. The “time to reach maximum discomfort or pain level” value (Human Subjects [2]; between treated and placebo groups, treated taking more time) was “significantly different”, the “time of onset of minimum discomfort or pain level” value (Human Subjects [2]; within-group, 7 days vs Day 0, p=0.013, one capsule per day) was “statistically significant increase” and the “time of onset of minimum discomfort or pain level” value (Human Subjects [2]; within-group, 30 days vs Day 0, p=0.005, one capsule per day) was “statistically significant increase”. The “time of onset of maximum discomfort” value (Human Subjects [2]; within-group, 30 days vs Day 0, p=0.012) was “significantly increased”, the “time of offset of maximum discomfort” value (Human Subjects [2]; within-group, 30 days vs Day 0, p=0.014) was “decrease” and the “time of minimum offset of discomfort” value (Human Subjects [2]; [9]) was “no statistically significant changes”. The “distance covered during the 6-minute timed walk” value (Human Subjects [3]) was “no statistically significant difference”, the “number of subjects that reported moderate improvements in knee discomfort” value (Human Subjects [4]; Day 0 (baseline)) was 4 and the “number of subjects that reported definite improvements in knee discomfort” value (Human Subjects [4]; Day 7) was 2. For the same compound, the “number of subjects that reported moderate improvements in knee discomfort” value (Human Subjects [4]; Day 7) was 10, the “number of subjects that reported moderate improvements in knee discomfort” value (Human Subjects [4]; Day 30) was 8 subjects and the “number of subjects that reported definite improvements in knee discomfort” value (Human Subjects [4]; Day 30, comparable to placebo) was 8. For the same compound, the “knee-related quality of life scores” value (Human Subjects [5]; [8]) was “no statistically significant differences”, the “knee-related quality of life scores” value (Human Subjects [5]; within-group, Day 7 vs Day 0, p=0.002) was “increase” and the “knee-related quality of life scores” value (Human Subjects [5]; within-group, Day 30 vs Day 0, p<0.001) was “increase”. For the same compound, the “change in left knee flexion” value (Human Subjects [6]; after 7 days of supplementation) was “apparent”, the right knee extension (Human Subjects [6]; [8]) was “no statistically significant difference” and the right knee flexion (Human Subjects [6]; [8]) was “no statistically significant difference”. The left knee flexion (Human Subjects [6]; within-group, 30 days vs Day 0, p=0.015) was “significant increase”, the right knee flexion (Human Subjects [6]; within-group, 30 days vs Day 0, p=0.019) was “significant increase” and the left knee extension (Human Subjects [6]; within-group, 30 days vs Day 0, p=0.028) was “significant increase”. For the same compound, the right knee extension (Human Subjects [6]; [9]) was “no statistically significant changes”, the “mental component score of the SF-12 survey” value (Human Subjects [7]; [8]) was “no statistically significant differences” and the “physical component score of the SF-12 survey” value (Human Subjects [7]; [8]) was “no statistically significant differences”. For the same compound, the “increase in the physical component score of the SF-12 survey” value (Human Subjects [7]; within-group, 30 days vs Day 0, p=0.031) was 8.93% and the “mental component score of the SF-12 survey” value (Human Subjects [7]; [9]) was “no statistically significant changes”.
